Data on one substance can be found in US20190151304A1, “METHODS AND PHARMACEUTICAL COMPOSITIONS FOR THE TREATMENT OF AUTOIMMUNE INFLAMMATORY” (INSERM (INSTITUT NATIONAL DE LA SANTÉ ET DE LA RECHERCJAE …, priority 2016, published 2019).

Assay [1] concerns cerulein-induced chronic pancreatitis mice. The assay is described as follows: Chronic pancreatitis mice model induced by cerulein. In kind it is in vivo. The text has this: FIG. 9. Pancreatic lymphocyte infiltration determined by immunostaining of CD45+ cells. Values were expressed as percentage of stained surface. **, p<0.01
FIG. 10: Amylase activity in blood samples of control mice, cerulein-induced mice and cerulein-induced mice treated with OxA. *, p<0.05; ***, p<0.001 and NS, non significant.
We have investigated the effect of orexin A (OxA) on chronic pancreatitis mice model induced by supraphysiologic doses of cerulein (3 intraperitoneal injections/week at 100 μg/kg). […] In mice treated by OxA (2 intraperitoneal injections/week at 1.40 μmol/Kg) the lesions induced by cerulein improved. OxA-treated mice had lower number of acino-ductal metaplasia.

Assay [2] relates to DSS-induced colitis mice. The experiment in a line: DSS-induced colitis mice model (Disease Activity Index, colon length). In kind it is in vivo, Balb/c mice. The text has this:
FIG. 2: OXA ameliorates the DAI (weight and colitis score) of DSS-induced colitis mice. Mice were orally treated with 5% DSS for 7 days in the presence or in the absence of daily intraperitoneal injection of OxA (0.22 μmoles/kg). Left, determination of gain or loss of weight in the absence of DSS treatment (Control,▴), in the presence of DSS treatment (DSS,▪) and in the presence of DSS associated to OxA treatment (DSS+OxA,●). Right, evaluation of Disease Activity Index (DAI) scored by measuring weight, length of colon, diarrhea and blood presence in the stool in DSS untreated control mice (Control,A), in DSS treated mice (DSS,▪) and in DSS treated mice associated to OxA treatment (DSS+OxA,●).
FIG. 14: Effect of daily ip inoculation of OxA, Suvorexant and Almorexant on the length of colon from DSS—(dextran sulfate sodium) treated mice mimicking the acute ulcerative colitis disease. A. Mice were treated with 5% (w/v) DSS in drinking water and daily injected with 20 μg of OxA (OXA IP), 20 μg of Suvorexant (Suvo) or 20 μg of Almorexant (Almo). Control (wt) or treated DSS mice (DSS) were daily injected with 100 μl PBS. After one week of treatment, mice were sacrificed and the length of colon which represented a good marker of inflammation state, was measured. […] B. quantification of colon length from 5 different DSS-treated mice injected with OxA (DSS+OXA IP), Almorexant (DSS+Almo), Suvorexant (DSS+Suvo) or not injected (WT and DSS). NS, no significant; *, p<0.05; ** p<0.001
Based on these observations, we have investigated the effect of Orexin A (OxA) on acute inflammation in mice treated with Dextran Sulfate Sodium (DSS). OxA was preferentially chosen in these experiments since the presence of two disulphide bridges confers it more stability. DSS induces acute colitis characterized by weight loss, bloody diarrhea, intestinal ulcerations and infiltrations with granulocytes.
DSS-induced colitis mice models: Balb/c mice were orally treated by 5% (w/v) of Dextran Sulfate Sodium (DSS) for 7 days. Orexin treatment was carried out in DSS treated mice by daily intraperitoneal injection of OxA (0.22 μmoles/kg) for 7 days. Weight and colitis symptoms (diarrhea, blood in the stool . . . ) for each mouse was daily measured. After 7 days of treatment, animals were sacrificed and colons were resected to further analyses (size, histological aspect, cytokine assays).
The inventors have thus investigated the effect of daily intraperitoneal inoculation of OxA, Suvorexant and Almorexant in the experimental context of EXAMPLE 1 (colitis). In particular they investigated the effects of the drugs on the length of colon from DSS-(dextran sulfate sodium) treated mice mimicking the acute ulcerative colitis disease. […]

Assay [3] concerns the target T1, OX1R (Homo sapiens, UniProt O43613, A280G).
T1 construct: HEK cells expressing recombinant native OX1R (HEK-OX1R); expressed in transfected cells; host or cells: HEK cells (HEK-OX1R)
T1 sequence (O43613 1-425 A280G): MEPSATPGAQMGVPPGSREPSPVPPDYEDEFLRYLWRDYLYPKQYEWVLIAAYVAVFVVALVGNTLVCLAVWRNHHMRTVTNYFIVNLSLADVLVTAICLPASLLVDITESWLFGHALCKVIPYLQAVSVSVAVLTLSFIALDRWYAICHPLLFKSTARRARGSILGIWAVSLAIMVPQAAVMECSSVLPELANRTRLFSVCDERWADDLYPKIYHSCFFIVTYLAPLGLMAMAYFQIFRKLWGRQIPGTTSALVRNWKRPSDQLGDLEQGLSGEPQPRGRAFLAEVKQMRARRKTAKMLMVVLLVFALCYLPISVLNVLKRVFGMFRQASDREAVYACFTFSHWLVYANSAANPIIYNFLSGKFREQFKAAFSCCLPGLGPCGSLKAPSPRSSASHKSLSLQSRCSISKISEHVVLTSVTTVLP
The assay is described as follows: Ca2+ mobilization assay in HEK-OX1R cells (FluoForte). It is filed as cell-based. The conditions noted are these: 1 μM. On the technique in general: Calcium assays in cells follow changes in intracellular calcium, usually with a dye or a luminescent sensor.

The subject of assay [4] is colon adenocarcinoma HT-29 cells. The assay is described as follows: Apoptosis assay (annexin V-PE binding, Guava nexin kit) in HT-29 cells. The conditions noted are these: 48 h; orexin-A 1 μM, SB408124 various concentrations. In kind it is cell-based. How it is done: FIG. 13: Effect of orexin-A and SB408124 antagonist on apoptosis in OX1R expressing colon adenocarcinoma cells, HT-29. HT-29 cells were challenged with 1 μM orexin-A or various concentration of SB408124 for 48 h. Apoptosis was measured by determination of annexin V-PE binding, and results are expressed as the percentage of apoptotic cells. Results are means±SE of three experiments. ***P<0.001.
Cells growth determination and apoptosis assay: HEK-OX1R cells or colon adenocarcinoma HT-29 cells were seeded, grown and maintained at 37° C. in a humidified 5% CO2/air incubator. After 24 hr culture, cells were treated with or without Orexin-A peptide or SB408124 antagonist, previously dissolved in DMSO, to be tested at the concentration indicated in the figure legends. After 48 hr of treatment, adherent cells were harvested by Trip1E (Life Technologies, Saint Aubin, France) and manually counted. Apoptosis was determined using the Guava PCA system and the Guava nexin kit.

No end group written: not given here.

Take “OxA: neuropeptide, endogenous ligand of OX1R and OX2R, with two disulphide bridges (QPLPDCCRQKTCSCRLYELLHGAGNHAAGILTL; disulfide (positions not given here); ends not checked; also: two disulphide bridges, pairing not given here; UniProt O43612 34-66, looked up)”: in assay [1] (OxA 1.40 μmol/Kg, quantitative imaging analysis, 18% in OxA-untreated mice), the “Pancreatic lymphocyte infiltration (anti-CD45 immunohistochemistry)” value was 6 % of the pancreatic surface. Moreover, in assay [1] (OxA 1.40 μmol/Kg, quantitative imaging analysis, 40% in OxA-untreated mice), the “Pancreatic fibrosis on Picrosirius staining” value is 12 % of the pancreatic surface. The “Number of acino-ductal metaplasia” value in assay [1] (OxA 2 intraperitoneal injections/week at 1.40 μmol/Kg) is reported as “lower number”. In addition, in assay [1] (OxA 2 intraperitoneal injections/week at 1.40 μmol/Kg, 3 weeks of cerulein), the “Lesions induced by cerulein (histological analysis of the pancreas)” value is recorded as “improved”. Further, the “Amylase activity in blood samples” value in assay [1] (cerulein-induced mice treated with OxA) was “significantly reduced”. The “Protection from DSS induced acute ulcerative colitis (length of colon)” value in assay [2] (5% DSS in drinking water, 20 μg daily ip, one week) is given as “protect mice from DSS induced acute ulcerative colitis disease”. Further, the “Disease Activity Index (DAI) scored by measuring weight, length of colon, diarrhea and presence of blood in the stool” value in assay [2] (5% DSS orally 7 days, daily intraperitoneal OxA 0.22 μmoles/kg) was “ameliorates”. Moreover, the “Ca2+ mobilization induced in HEK-OX1R cells” value in assay [3] is “large and transient”. Further, in assay [4], the “Apoptosis in HT-29 cells” value is listed as “induced an apoptotic effect”.
